In US20250025459A1, “COVID-19 TREATMENT MEDICINE CHARACTERIZED BY COMBINING 3CL PROTEASE INHIBITOR AND COVID-19 TREATMENT DRUG” (priority 2021, published 2025):
Where two headings read alike, the source gives them in different places.

Tests used:
[1] = test system: SARS-CoV-2 hCoV-19/Japan/TY/WK-521/2020; assay: Combination effect confirmation test, VeroE6/TMPRSS2 cells, strain WK-521; format: cell-based; conditions: for EC50 of single agent: VeroE6/TMPRSS2, 3 days
[2] = test system: SARS-CoV-2 hCoV-19/Japan/TY7-501/2021; assay: Combination effect confirmation test, VeroE6/TMPRSS2 cells, strain TY7-501; format: cell-based
[3] = test system: SARS-CoV-2 hCoV-19/Japan/TY11-927-P1/2021; assay: Combination effect confirmation test, VeroE6/TMPRSS2 cells, strain TY11-927-P1; format: cell-based; conditions: for EC50: Severe acute respiratory syndrome coronavirus 2, VeroE6/TMPRSS2, 72 h, single agent; for EC50 of single agent: VeroE6/TMPRSS2, 3 days
[4] = test system: SARS-CoV-2; assay: microbe, parasite or virus in culture; format: cell-based; conditions: Severe acute respiratory syndrome coronavirus 2, 72 h; VeroE6/TMPRSS2 cells, 100 TCID50/well, 3 days; class symbols
[5] = target: SARS-CoV-2 3CL Protease (Severe acute respiratory syndrome coronavirus 2 (2019-nCoV) (SARS-CoV-2), UniProt P0DTD1); assay: biochemical; format: biochemical
[6] = Severe acute respiratory syndrome coronavirus 2, 72 h, single agent, hCoV-19/Japan/TY/WK-521/2020, VeroE6/TMPRSS2, 1000 TCID50/well, 3 days
[7] = Severe acute respiratory syndrome coronavirus 2, VeroE6/TMPRSS2, 72 h, single agent, hCoV-19/Japan/TY7-501/2021, […]
[8] = read-out: 50% SARS-CoV-2 3CL protease inhibitory concentration (IC50)
[9] = recombinant enzyme, RapidFire MS, class symbols, read-out: IC50
[10] = single agent, hCoV-19/Japan/TY/WK-521/2020

Row | Compound | EC50 [4] [nM] | other results
1 | Cn1cnc(Cn2c(=O)[nH]/c(=N\c3cc4cn(C)nc4cc3Cl)n(Cc3cc(F)c(F)cc3F)c2=O)n1 | – | EC50 [1, 6]: 370 nM; EC50 [2, 7]: 500 nM; EC50 [3]: 410 nM
2 | CN(C)C(=O)COC(=O)Cc1ccc(OC(=O)c2ccc(NC(=N)N)cc2)cc1 [Camostatmesylate, reference compound] | – | EC50 [1, 6]: 1300 nM
3 | Cc1cncc(-n2c(=O)nc(Nc3cc4cn(C)nc4cc3F)n(Cc3cc(F)c(F)c(F)c3)c2=O)c1 [Compound I-002] | < 1000 | –
4 | Cc1cncc(-n2c(=O)nc(Nc3cc4cn(C)nc4cc3Cl)n(Cc3cc(F)c(F)c(F)c3)c2=O)c1 [Compound I-003] | – | IC50 [5, 8]: 14 nM; EC50 [1, 6]: 177 nM
5 | Cc1cncc(-n2c(=O)nc(Nc3cc4cn(C)nc4cc3C)n(Cc3cc(F)c(F)c(F)c3)c2=O)c1 [Compound I-004] | 1000 to 10000 | –
6 | N#Cc1cc(Cn2c(Nc3ccc4nn(CC(F)F)cc4c3)nc(=O)n(-c3cncc4ccccc34)c2=O)ccc1F [Compound I-009] | < 1000 | –
7 | Cc1cncc(-n2c(=O)nc(Nc3ccc4nn(CC(F)F)cc4c3)n(Cc3ccc(F)c(C#N)c3)c2=O)c1 [Compound I-011] | < 1000 | –
8 | Cc1cncc(-n2c(=O)nc(Nc3cc4cn(C)nc4cc3Cl)n(Cc3cc(F)c(F)cc3F)c2=O)c1 [Compound I-012] | – | IC50 [5, 8]: 9.1 nM
9 | Cc1cc2nn(C)cc2cc1Nc1nc(=O)n(-c2cncc3ccccc23)c(=O)n1Cc1cc(F)c(F)c(F)c1 [Compound I-013] | 1000 to 10000 | IC50 [5, 9]: < 100 nM
10 | Cn1cc2cc(Nc3nc(=O)n(-c4cncc5ccccc45)c(=O)n3Cc3cc(F)c(F)c(F)c3)c(Cl)cc2n1 [Compound I-014] | < 1000 | –
11 | Cn1cc2cc(Nc3nc(=O)n(-c4cncc5ccccc45)c(=O)n3Cc3ccc(F)c(C#N)c3)c(Cl)cc2n1 [Compound I-015] | < 1000 | –
12 | Cn1cc2cc(Nc3nc(=O)n(-c4cncc5ccccc45)c(=O)n3Cc3cc(F)c(F)c(F)c3)ccc2n1 [Compound I-016] | < 1000 | –
13 | Cc1cncc(-n2c(=O)nc(Nc3cc4cn(C)nc4cc3F)n(Cc3ccc(F)c(C#N)c3)c2=O)c1 [Compound I-018] | < 1000 | –
14 | Cc1cncc(-n2c(=O)nc(Nc3cc4cn(C)nc4cc3C)n(Cc3ccc(F)c(C#N)c3)c2=O)c1 [Compound I-019] | < 1000 | –
15 | O=c1nc(Nc2cc3cn(CCN4CCOCC4)nc3cc2Cl)n(Cc2cc(F)c(F)c(F)c2)c(=O)n1-c1cncc2ccccc12 [Compound I-020] | 1000 to 10000 | –
16 | Cn1cnc(Cn2c(=O)nc(Nc3cc4cn(C)nc4cc3Cl)n(Cc3cc(F)c(F)c(F)c3)c2=O)n1 [Compound I-021] | < 1000 | –
17 | Cc1nc2cc(Cl)c(Nc3nc(=O)n(Cc4ncn(C)n4)c(=O)n3Cc3cc(F)c(F)c(F)c3)cc2n1C [Compound I-022] | 1000 to 10000 | –
18 | N#Cc1cc(Cn2c(Nc3cc4cn(C(F)F)nc4cc3Cl)nc(=O)n(-c3cncc4ccccc34)c2=O)ccc1F [Compound I-024] | < 1000 | –

Row | Compound | EC50 [4] [nM] | other results
19 | Cn1cc2cc(Nc3nc(=O)n(-c4cncc5ccccc45)c(=O)n3Cc3ccc(F)c(C#N)c3)c(F)cc2n1 [Compound I-025] | < 1000 | –
20 | Cc1cncc(-n2c(=O)nc(Nc3cc4cn(C(F)F)nc4cc3Cl)n(Cc3ccc(F)c(C#N)c3)c2=O)c1 [Compound I-026] | < 1000 | –
21 | Cc1cc2nn(C)cc2cc1Nc1nc(=O)n(-c2cncc3ccccc23)c(=O)n1Cc1ccc(F)c(C#N)c1 [Compound I-027] | < 1000 | –
22 | Cn1cnc(Cn2c(=O)nc(Nc3cc4cn(CCO)nc4cc3Cl)n(Cc3cc(F)c(F)c(F)c3)c2=O)n1 [Compound I-028] | 1000 to 10000 | –
23 | Cn1cnc(Cn2c(=O)nc(Nc3cc4cn(CC(F)F)nc4cc3Cl)n(Cc3cc(F)c(F)c(F)c3)c2=O)n1 [Compound I-029] | < 1000 | –
24 | Cn1cnc(Cn2c(=O)nc(Nc3cc4cn(C(F)F)nc4cc3Cl)n(Cc3cc(F)c(F)c(F)c3)c2=O)n1 [Compound I-030] | 1000 to 10000 | –
25 | N#Cc1cc(Cn2c(Nc3cc4cn(CCO)nc4cc3Cl)nc(=O)n(-c3cncc4ccccc34)c2=O)ccc1F [Compound I-031] | 1000 to 10000 | IC50 [5, 9]: < 100 nM
26 | Cc1nc2cc(Cl)c(Nc3nc(=O)n(-c4cncc5ccccc45)c(=O)n3Cc3cc(F)c(F)c(F)c3)cc2n1C [Compound I-032] | 1000 to 10000 | IC50 [5, 9]: < 100 nM
27 | CC(=O)NCCn1cc2cc(Nc3nc(=O)n(-c4cncc5ccccc45)c(=O)n3Cc3cc(F)c(F)c(F)c3)c(Cl)cc2n1 [Compound I-033] | 1000 to 10000 | –
28 | O=c1nc(Nc2ccc3nn(CC(F)F)cc3c2)n(Cc2cc(F)c(F)c(F)c2)c(=O)n1-c1cncc2ccccc12 [Compound I-034] | < 1000 | –
29 | O=c1nc(NO)ccn1[C@@H]1O[C@H](CO)[C@@H](O)[C@H]1O [EIDD-1931, reference compound] | – | EC50 ([1]; read-out: EC50 of single agent): 690 nM; EC50 ([2]; read-out: EC50 of single agent): 1500 nM
30 | CC(C)(C)[C@H](NC(=O)C(F)(F)F)C(=O)N1C[C@H]2[C@@H]([C@H]1C(=O)N[C@H](C#N)C[C@@H]1CCNC1=O)C2(C)C [PF-07321332, reference compound] | – | EC50 [1, 6]: 7100 nM
31 | CCC(CC)COC(=O)[C@H](C)N[P@](=O)(OC[C@H]1O[C@@](C#N)(c2ccc3c(N)ncnn23)[C@H](O)[C@@H]1O)Oc1ccccc1 [Remdesivir, reference compound] | – | EC50 ([1]; Severe acute respiratory syndrome coronavirus 2, VeroE6/TMPRSS2, 72 h, single agent, hCoV-19/Japan/TY/WK-521/2020, […]): 2500 nM; EC50 [2, 7]: 2300 nM; EC50 [3]: 2000 nM
32 | Bebtelovimab: anti-SARS-CoV-2 monoclonal antibody | – | EC50 of single agent [3]: 0.0231(μg/mL)
33 | Casirivimab: anti-SARS-CoV-2 monoclonal antibody | – | EC50 of single agent [1, 10]: 0.077 [μg/mL]
34 | Imdevimab: anti-SARS-CoV-2 monoclonal antibody | – | EC50 of single agent [1, 10]: 0.047 [μg/mL]
35 | Sotrovimab: anti-SARS-CoV-2 monoclonal antibody | – | EC50 of single agent [3]: 1.06(μg/mL)
